# Measurements as given in US20190119282A1, “IMIDAZOPYRIDAZINES USEFUL AS INHIBITORS OF THE PAR-2 SIGNALING PATHWAY” (Vertex Pharmaceuticals Incorporated, priority 2013, published 2019).
# How the values were obtained:
# [1] = target: T1, PAR2 (HT-29 cells, SLIGKV activation) (Homo sapiens, UniProt P55085); test: Ca FLIPR TETRA assay, ANTAGONIST mode, stimulation with 8 μM SLIGKV; assay type: cell-based; conditions: HT-29 cells, stimulation with 8 μM SLIGKV
# T1 construct: host or cells: HT-29 cells
# T1 sequence (P55085 26-397): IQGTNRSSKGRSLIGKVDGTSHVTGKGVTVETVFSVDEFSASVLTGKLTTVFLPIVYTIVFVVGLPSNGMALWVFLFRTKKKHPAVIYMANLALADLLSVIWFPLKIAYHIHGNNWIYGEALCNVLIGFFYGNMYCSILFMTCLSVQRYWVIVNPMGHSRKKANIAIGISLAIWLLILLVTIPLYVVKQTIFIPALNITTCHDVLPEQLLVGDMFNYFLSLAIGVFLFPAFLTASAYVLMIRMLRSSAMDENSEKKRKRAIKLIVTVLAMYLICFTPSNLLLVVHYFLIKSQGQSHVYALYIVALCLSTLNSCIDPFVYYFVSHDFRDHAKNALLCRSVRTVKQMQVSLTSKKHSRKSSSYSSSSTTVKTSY
# Summary of the method: (§1)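 Antagonist-mode assay: dye-loaded HT-29 cells, compound 30 min at r.t., then stimulated with final 8 μM SLIGKV, 3.1 U/mL trypsin, 1 U/mL thrombin or 0.6 μM UTP; calcium fluorescence read.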
# [2] = target: T2, PAR2 (HT-29 cells, trypsin activation) (Homo sapiens, UniProt P55085); test: Ca FLIPR TETRA assay, ANTAGONIST mode, stimulation with 3.1 U/mL trypsin; assay type: cell-based; conditions: HT-29 cells, stimulation with 3.1 U/mL trypsin
# T2 construct: host or cells: HT-29 cells
# T2 sequence (P55085 26-397): T1 sequence (P55085 26-397)
# Summary of the method: as §1
# [3] = system: Thrombin-stimulated Ca2+ response in HT-29 cells; test: Ca FLIPR TETRA assay, ANTAGONIST mode, stimulation with 1 U/mL Thrombin; assay type: cell-based, human; conditions: Homo sapiens, HT-29 cells, stimulation with 1 U/mL Thrombin
# Summary of the method: as §1
# [4] = system: UTP-stimulated Ca2+ response in HT-29 cells; test: Ca FLIPR TETRA assay, ANTAGONIST mode, stimulation with 0.6 μM UTP; assay type: cell-based, human; conditions: Homo sapiens, HT-29 cells, stimulation with 0.6 μM UTP
# Summary of the method: as §1
Structure (SMILES),IC50 ([1]; antagonist mode) [nM],IC50 ([2]; antagonist mode) [nM],IC50 ([3]; antagonist mode) [nM],IC50 ([4]; antagonist mode) [nM],IC50 [1] [nM],IC50 [2] [nM],IC50 [3] [nM],IC50 [4] [nM]
Cc1n[nH]c(C(=O)N2CCN(C(=O)c3cn4nc(-c5ccc(F)c(Cl)c5)cc(C(C)(C)C)c4n3)C(C)(C)C2)n1 [Compound I-468],0.7,1.2,3240,2120,–,–,–,–
CC(C)c1cc(-c2ccc(F)cc2)nn2cc(C(=O)N3CCN(C(=O)[C@H](O)CC(C)(C)C)C[C@@H]3C)nc12 [Compound I-197],150,430,> 1000,> 1000,–,–,–,–
C[C@H]1CN(C(=O)c2cn3nc(-c4ccc(F)cc4)cc(C(F)(F)F)c3n2)CCN1C(=O)C1CCCCC1 [Compound I-86],–,–,–,–,78,600,35000,37000
CC(C)(C)c1cc(-c2ccc(F)cc2)nn2cc(C(=O)N3CCN(c4cscn4)C(=O)C3(C)C)nc12 [Compound I-266],0.6,1,> 100,> 1000,–,–,–,–
CC(C)(C)c1cc(C2CCC(F)(F)CC2)nn2cc(C(=O)N3CCN(C(=O)[C@H]4CC[C@@H](C(=O)O)CC4)CC3(C)C)nc12 [Compound I-533],4.7,7.9,> 1000,> 1000,–,–,–,–
CC(C)(C)c1cc(-c2ccc(F)c(Cl)c2)nn2cc(C(=O)N3CCN(C(=O)[C@H]4C[C@@](C)(O)C4)CC3(C)C)nc12 [Compound I-460],0.5,0.7,> 1000,> 1000,–,–,–,–
C[C@H]1CN(C(=O)c2cn3nc(-c4ccc(F)cc4)cc(C(F)(F)F)c3n2)CCN1C(=O)[C@@H]1CCCO1 [Compound I-85],–,–,–,–,1600,10000,49000,40000
CC(C)c1cc(-c2ccc(F)c(Cl)c2)nn2cc(C(=O)N3CCN(C(=O)[C@H]4C[C@H](O)C4)CC3(C)C)nc12 [Compound I-505],12,23,> 1000,> 1000,–,–,–,–
"C[C@H]1CN(C(=O)c2cn3nc(-c4ccc(F)cc4)cc(C4CC4)c3n2)CCN1C(=O)[C@H](O)CC(C)(C)C [Compound I-14, (2R)-1-[(2S)-4-[8-Cylopropyl-6-(4-fluorophenyl)imidazo[1,2-b]pyridazine-2-carbonyl]-2-methyl-piperazin-1-yl]-2-hydroxy-4,4-dimethyl-pentan-1-one]",–,–,–,–,0.5,0.8,> 5000,> 5000
CC(C)c1cc(-c2ccc(C(F)(F)F)c(F)c2)nn2cc(C(=O)N3CCNC(=O)C3(C)C)nc12 [Compound I-273],0.7,1.2,> 1000,> 1000,–,–,–,–
CC(C)(C)c1cc(-c2ccc(Cl)cc2)nn2cc(C(=O)N3CCNC(=O)C3(C)C)nc12 [Compound I-361],2.7,2.2,> 1000,> 1000,–,–,–,–
CC(C)c1cc(-c2ccc(F)cc2)nn2cc(C(=O)N3CCN(C(=O)[C@@H](O)C(C)C)[C@@H](C)C3)nc12 [Compound I-110],–,–,–,–,110,1500,19000,18000
CCc1cc(-c2ccc(F)cc2)nn2cc(C(=O)N3CCN(C(=O)[C@H](O)CC(C)C)CC3(C)C)nc12 [Compound I-167],–,–,–,–,2,2,8500,9600
CC(C)(C)C1CC(c2ccc(F)cc2)=Nn2cc(C(=O)N3CCNC(=O)C3(C)C)nc21 (stereo not drawn) [Compound I-446],56,104,> 1000,> 1000,–,–,–,–
Cc1cccc(-c2cc(C(C)(C)C)c3nc(C(=O)N4CCN(C(=O)c5nc(C)n[nH]5)CC4(C)C)cn3n2)c1 [Compound I-408],2.8,4.3,540,> 1000,–,–,–,–
